# Data: patent US9580758B2, “System and method for the detection and treatment of infection by a microbial agent associated with HIV infection” (priority 2013, dated 2017)
# Tested on: Rickettsiales-like agent
# Assay type: cell-based
structure (smiles),measurement,value
O=C(N[C@H](CO)[C@H](O)c1ccc([N+](=O)[O-])cc1)C(Cl)Cl [chloramphenicol],sensitivity of the 400 bp sequence (grown with the Rickettsiales-like agent) to treatment in vitro,sensitive
